Tests used:
[1] = prepared with soluble bilirubin oxidase, stored at 4° C.
glucose oxidase = target: T1, glucose oxidase (Aspergillus niger, UniProt P13006); test: Kinetic studies of the blue dye with oxidases (Michaelis-Menten constant); assay type: biochemical; conditions: compared with lactate oxidase and xanthine oxidase
T1 construct: purchased Sigma (St. Louis, Mo.)

[2] = Sensitivity of the dye / its absorption characteristics to pH variation; assay type: physicochemical; conditions: products of chemical oxidation by ceric sulfate or iodine/KI
From the text: It was also noted that the DMFeCp2 -hp-β-CD complex stored at room temperature began to turn green, indicating a preference toward the oxidized state. As also reported, 15 the redox potential of DMFeCp2 is lowest (100 mV) among several known ferrocene-related compounds and this may contribute to the stability of DMFeCp2^+ in comparison to FeCp2^+. Both forms of ferricinium were insensitive to pH variation from 2-11. This characteristic is of advantage since the assay can be performed regardless of some fluctuation in pH and is applicable for a variety of oxidases with different pH optima. Due to the instability of the concentrated FeCp2^+, further studies focused on the electrochemically produced DMFeCp2^+.
Both FeCp2 and DMFeCp2 were oxidized by ceric sulfate or iodine/KI to FeCp2 H^+, (ferrocenonium) and DMFeCp2 H^+ (1,1'-dimethylferrocenonium), respectively. The reaction was almost instantaneous and the spectra of these two cation species were identical to those of ferricinium and 1,1'-dimethylferricinium. […] Such results were not completely unexpected since in strong acid media ferrocene was reported to undergo extensive protonation on the metal atom.

[3] = water; cited from earlier work

T1 sequence (P13006 17-605): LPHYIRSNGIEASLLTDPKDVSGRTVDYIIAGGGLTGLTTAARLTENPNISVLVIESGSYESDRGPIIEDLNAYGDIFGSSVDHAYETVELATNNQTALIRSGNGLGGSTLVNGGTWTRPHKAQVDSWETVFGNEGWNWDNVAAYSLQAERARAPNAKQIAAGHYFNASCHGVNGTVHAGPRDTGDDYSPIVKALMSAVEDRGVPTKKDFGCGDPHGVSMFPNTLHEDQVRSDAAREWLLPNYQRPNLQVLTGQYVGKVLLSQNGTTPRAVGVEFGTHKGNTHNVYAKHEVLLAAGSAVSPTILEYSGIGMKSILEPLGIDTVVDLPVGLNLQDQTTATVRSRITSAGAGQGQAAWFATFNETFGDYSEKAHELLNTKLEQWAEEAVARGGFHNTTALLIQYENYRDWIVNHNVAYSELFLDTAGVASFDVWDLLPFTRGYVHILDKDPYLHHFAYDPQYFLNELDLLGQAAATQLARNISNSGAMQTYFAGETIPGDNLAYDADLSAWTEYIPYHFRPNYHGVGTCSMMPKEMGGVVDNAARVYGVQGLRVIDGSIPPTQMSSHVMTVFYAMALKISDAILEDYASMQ

stability against changes in pH [2]	Compound	solubility of the cyclodextrin in aqueous solutions [3]	further results
–	ferricinium [FeCp2^+]	–	time stable [1]: 2 months
–	1,1'-dimethylferricinium [DMFeCp2^+]	–	Michaelis-Menten constant for the blue dye (glucose oxidase): noticeably higher
not stable against changes in pH	ferrocenonium [FeCp2 H^+]	–	–
–	2-hydroxypropyl-β-cyclodextrin [Hp-β-CD]	50 % w/v	–
not stable against changes in pH	CC1C=CC=C1.C[c-]1cccc1.[Fe+2] [DMFeCp2 H^+, 1,1'-dimethylferrocenonium]	–	–
–	OC[C@H]1O[C@@H]2O[C@H]3[C@H](O)[C@@H](O)[C@@H](O[C@H]4[C@H](O)[C@@H](O)[C@@H](O[C@H]5[C@H](O)[C@@H](O)[C@@H](O[C@H]6[C@H](O)[C@@H](O)[C@@H](O[C@H]7[C@H](O)[C@@H](O)[C@@H](O[C@H]1[C@H](O)[C@H]2O)O[C@@H]7CO)O[C@@H]6CO)O[C@@H]5CO)O[C@@H]4CO)O[C@@H]3CO [α-CD, α-cyclodextrin]	12-16 % w/v	–

— patent publication US5432274A, “Redox dye and method of preparation thereof using 2-hydroxypropyl-β-cyclodextrin and 1,1'-dimethylferrocene” (National Research Council of Canada, priority 1993, dated 1995)
